Measured values as given in paper PMC11233931, “Remodeling tumor‐associated macrophage for anti‐cancer effects by rational design of irreversible inhibition of mitogen‐activated protein kinase‐activated protein kinase 2” (MedComm, 2024).

Assays:
Assay in all cases: Eurofins kinase selectivity profile against 380 other human recombinant kinases (Table S2)
Type in all cases: biochemical
[1] = target: T1, 380 human recombinant protein kinases (Homo sapiens, UniProt P04049); conditions: c-RAF(h), read-out: Inhibition rate
T1 construct: purchased Eurofins (Celle Lévescault)
T1 sequence (P04049 whole entry): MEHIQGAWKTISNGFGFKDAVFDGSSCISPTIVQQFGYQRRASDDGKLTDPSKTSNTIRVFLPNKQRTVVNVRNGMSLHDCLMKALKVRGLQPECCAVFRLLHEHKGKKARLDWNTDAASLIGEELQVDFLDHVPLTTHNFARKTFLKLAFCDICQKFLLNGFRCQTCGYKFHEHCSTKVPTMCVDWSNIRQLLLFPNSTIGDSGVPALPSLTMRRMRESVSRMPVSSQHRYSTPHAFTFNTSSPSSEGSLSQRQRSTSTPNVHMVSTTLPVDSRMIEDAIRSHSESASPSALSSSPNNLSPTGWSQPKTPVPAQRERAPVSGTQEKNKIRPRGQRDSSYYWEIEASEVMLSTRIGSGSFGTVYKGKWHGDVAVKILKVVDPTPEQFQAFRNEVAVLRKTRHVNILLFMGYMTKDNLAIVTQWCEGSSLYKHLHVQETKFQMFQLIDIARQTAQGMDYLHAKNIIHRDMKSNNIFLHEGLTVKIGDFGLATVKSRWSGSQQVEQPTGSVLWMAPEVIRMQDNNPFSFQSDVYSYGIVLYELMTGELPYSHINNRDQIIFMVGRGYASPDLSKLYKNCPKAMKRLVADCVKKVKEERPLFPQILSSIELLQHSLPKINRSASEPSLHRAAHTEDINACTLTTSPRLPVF
Summary of the method: (§1)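 Off-target profiling: one compound assayed by a commercial provider over 380 recombinant human protein kinases at various concentrations.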

[2] = target: T2, 380 human recombinant protein kinases (Homo sapiens, UniProt O00418); conditions: eEF-2K(h), read-out: Inhibition rate
T2 construct: purchased Eurofins (Celle Lévescault)
T2 sequence (O00418 1-725): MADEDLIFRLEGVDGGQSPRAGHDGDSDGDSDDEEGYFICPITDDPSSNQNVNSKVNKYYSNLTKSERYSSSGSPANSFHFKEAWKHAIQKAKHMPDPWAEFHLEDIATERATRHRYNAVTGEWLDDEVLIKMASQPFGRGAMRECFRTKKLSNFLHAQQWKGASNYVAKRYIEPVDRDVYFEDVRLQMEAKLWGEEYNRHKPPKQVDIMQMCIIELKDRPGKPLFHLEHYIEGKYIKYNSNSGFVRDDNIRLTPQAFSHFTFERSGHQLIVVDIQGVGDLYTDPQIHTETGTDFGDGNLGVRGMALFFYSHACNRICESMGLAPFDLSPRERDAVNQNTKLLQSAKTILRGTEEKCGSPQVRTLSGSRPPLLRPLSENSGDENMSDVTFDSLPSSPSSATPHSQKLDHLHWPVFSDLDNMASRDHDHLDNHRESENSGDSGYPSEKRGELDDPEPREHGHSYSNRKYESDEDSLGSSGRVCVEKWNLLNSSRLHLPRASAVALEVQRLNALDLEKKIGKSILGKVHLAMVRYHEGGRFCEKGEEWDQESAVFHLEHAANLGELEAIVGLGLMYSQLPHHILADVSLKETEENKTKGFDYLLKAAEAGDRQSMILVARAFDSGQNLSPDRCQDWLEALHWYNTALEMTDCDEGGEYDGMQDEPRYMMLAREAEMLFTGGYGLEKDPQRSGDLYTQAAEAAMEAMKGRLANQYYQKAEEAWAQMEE
Summary of the method: as §1

[3] = target: T3, 380 human recombinant protein kinases (Homo sapiens, UniProt Q9BQI3); conditions: HRI(h), read-out: Inhibition rate
T3 construct: purchased Eurofins (Celle Lévescault)
T3 sequence (Q9BQI3 whole entry): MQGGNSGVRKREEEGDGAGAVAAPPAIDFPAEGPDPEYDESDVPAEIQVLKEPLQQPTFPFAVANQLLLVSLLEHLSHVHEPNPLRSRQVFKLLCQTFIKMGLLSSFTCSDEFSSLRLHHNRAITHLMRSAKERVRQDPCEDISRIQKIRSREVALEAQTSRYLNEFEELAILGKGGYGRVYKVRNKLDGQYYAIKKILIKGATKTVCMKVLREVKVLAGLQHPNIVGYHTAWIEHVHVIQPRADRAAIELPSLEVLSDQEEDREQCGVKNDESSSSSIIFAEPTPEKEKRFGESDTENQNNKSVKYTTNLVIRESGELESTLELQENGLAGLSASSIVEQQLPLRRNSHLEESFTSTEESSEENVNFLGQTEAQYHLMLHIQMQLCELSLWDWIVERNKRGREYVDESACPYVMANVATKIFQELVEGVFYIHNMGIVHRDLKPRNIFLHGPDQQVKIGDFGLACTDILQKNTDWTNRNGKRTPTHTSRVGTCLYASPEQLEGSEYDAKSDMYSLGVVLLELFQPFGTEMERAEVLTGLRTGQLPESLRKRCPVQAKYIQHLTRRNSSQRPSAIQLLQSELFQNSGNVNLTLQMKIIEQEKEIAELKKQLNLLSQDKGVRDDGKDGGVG
Summary of the method: as §1

[4] = target: T4, 380 human recombinant protein kinases (Homo sapiens, UniProt P09619); conditions: PDGFRβ(h), read-out: Inhibition rate
T4 construct: purchased Eurofins (Celle Lévescault)
T4 sequence (P09619 33-1106): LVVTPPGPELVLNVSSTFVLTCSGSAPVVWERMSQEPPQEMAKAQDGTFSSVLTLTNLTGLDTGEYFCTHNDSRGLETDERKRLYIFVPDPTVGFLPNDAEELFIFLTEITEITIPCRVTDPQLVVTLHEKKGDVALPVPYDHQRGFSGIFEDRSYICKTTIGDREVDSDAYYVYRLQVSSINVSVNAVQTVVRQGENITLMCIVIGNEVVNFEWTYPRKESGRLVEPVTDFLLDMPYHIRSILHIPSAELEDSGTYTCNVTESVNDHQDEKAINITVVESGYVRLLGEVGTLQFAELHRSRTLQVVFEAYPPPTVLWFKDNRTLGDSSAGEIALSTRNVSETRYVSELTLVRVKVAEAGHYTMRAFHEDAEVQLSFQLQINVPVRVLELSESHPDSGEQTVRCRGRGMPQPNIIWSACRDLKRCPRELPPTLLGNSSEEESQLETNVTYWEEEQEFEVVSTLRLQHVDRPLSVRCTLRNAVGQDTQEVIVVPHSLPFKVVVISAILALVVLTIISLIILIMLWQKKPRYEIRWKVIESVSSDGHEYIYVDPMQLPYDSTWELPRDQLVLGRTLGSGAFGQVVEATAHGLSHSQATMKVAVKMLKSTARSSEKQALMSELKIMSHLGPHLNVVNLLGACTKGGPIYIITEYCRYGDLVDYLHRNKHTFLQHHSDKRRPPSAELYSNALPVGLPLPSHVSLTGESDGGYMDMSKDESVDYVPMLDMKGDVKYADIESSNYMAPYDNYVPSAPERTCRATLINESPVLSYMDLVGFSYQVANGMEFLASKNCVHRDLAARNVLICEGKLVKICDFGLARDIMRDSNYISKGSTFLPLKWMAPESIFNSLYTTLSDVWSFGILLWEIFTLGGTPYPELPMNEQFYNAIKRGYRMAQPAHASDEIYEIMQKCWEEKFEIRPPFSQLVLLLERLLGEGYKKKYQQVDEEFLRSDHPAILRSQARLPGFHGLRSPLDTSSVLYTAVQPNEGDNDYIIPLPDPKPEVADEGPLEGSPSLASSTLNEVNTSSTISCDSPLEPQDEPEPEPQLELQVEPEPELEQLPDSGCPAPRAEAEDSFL
Summary of the method: as §1

[5] = target: T5, 380 human recombinant protein kinases (Homo sapiens, UniProt P48730); conditions: CK1δ(h), read-out: Inhibition rate
T5 construct: purchased Eurofins (Celle Lévescault)
T5 sequence (P48730 whole entry): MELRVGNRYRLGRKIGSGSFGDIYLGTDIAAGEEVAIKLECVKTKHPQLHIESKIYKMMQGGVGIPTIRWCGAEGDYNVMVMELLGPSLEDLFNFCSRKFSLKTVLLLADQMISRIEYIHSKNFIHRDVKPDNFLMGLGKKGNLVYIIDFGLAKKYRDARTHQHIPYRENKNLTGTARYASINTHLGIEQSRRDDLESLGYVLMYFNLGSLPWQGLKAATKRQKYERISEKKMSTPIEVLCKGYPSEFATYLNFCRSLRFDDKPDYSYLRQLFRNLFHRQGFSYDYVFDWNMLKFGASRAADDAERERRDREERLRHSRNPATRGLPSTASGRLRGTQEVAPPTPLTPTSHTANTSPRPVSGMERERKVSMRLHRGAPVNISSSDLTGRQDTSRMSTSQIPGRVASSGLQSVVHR
Summary of the method: as §1

[6] = target: T6, 380 human recombinant protein kinases (Homo sapiens, UniProt O94921); conditions: CDK14/cyclinY(h), read-out: Inhibition rate
T6 construct: purchased Eurofins (Celle Lévescault)
T6 sequence (O94921 whole entry): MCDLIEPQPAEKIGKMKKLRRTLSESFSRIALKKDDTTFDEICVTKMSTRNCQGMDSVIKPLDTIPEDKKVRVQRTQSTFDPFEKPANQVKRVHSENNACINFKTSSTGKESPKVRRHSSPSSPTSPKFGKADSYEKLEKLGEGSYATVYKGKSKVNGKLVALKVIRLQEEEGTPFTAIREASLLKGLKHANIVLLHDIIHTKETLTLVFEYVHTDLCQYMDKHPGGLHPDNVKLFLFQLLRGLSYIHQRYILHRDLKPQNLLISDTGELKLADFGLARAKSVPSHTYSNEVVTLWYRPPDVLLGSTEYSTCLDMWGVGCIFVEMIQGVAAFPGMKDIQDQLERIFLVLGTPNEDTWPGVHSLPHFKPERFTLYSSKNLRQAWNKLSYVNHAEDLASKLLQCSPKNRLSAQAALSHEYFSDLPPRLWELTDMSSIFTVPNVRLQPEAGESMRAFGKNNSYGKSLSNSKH
Summary of the method: as §1

[7] = target: T7, 380 human recombinant protein kinases (Homo sapiens, UniProt Q05655); conditions: PKCδ(h), read-out: Inhibition rate
T7 construct: purchased Eurofins (Celle Lévescault)
T7 sequence (Q05655 whole entry): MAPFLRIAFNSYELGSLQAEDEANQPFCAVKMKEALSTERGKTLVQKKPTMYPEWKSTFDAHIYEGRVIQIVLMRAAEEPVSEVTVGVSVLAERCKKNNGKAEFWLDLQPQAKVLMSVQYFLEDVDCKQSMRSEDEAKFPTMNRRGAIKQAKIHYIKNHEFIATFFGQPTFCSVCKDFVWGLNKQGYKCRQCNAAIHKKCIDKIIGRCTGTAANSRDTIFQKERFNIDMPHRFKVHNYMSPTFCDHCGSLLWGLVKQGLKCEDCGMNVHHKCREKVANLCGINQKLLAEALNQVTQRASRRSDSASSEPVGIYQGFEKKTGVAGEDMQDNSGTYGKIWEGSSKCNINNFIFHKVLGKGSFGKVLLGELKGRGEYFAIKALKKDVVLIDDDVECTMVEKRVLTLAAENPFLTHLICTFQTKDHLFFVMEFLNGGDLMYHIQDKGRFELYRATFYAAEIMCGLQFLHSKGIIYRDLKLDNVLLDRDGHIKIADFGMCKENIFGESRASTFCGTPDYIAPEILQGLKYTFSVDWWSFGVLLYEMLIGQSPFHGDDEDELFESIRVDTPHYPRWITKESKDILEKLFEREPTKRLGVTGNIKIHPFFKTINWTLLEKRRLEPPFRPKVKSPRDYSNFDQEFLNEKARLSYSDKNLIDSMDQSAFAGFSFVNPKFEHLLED
Summary of the method: as §1

[8] = target: T8, 380 human recombinant protein kinases (Homo sapiens, UniProt P35626); conditions: GRK3(h), read-out: Inhibition rate
T8 construct: purchased Eurofins (Celle Lévescault)
T8 sequence (P35626 1-688): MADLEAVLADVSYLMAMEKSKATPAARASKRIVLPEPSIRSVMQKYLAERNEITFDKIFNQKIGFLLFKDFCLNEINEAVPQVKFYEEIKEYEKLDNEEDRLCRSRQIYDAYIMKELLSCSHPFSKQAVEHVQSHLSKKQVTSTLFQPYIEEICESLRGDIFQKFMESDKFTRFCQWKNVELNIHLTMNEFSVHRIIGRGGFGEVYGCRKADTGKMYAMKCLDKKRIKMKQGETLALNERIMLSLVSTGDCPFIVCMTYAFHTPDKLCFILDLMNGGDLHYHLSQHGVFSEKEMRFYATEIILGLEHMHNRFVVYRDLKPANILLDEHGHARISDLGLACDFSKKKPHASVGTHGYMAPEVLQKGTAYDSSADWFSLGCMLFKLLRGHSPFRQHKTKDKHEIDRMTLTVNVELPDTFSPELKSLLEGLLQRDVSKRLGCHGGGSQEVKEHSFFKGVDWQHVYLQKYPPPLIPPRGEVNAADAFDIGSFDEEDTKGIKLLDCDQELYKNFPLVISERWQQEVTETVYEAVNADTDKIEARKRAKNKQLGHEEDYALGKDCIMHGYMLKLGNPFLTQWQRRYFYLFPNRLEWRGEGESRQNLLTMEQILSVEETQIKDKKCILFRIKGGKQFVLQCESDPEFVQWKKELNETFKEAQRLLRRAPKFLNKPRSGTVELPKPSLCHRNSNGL
Summary of the method: as §1

For `C=CC(=O)Nc1cc(-c2cc(-c3cc4c([nH]3)CCNC4=O)ccn2)ccc1OC(F)(F)F` [compound 11], the inhibition at 0.01 µM ([1]; 10 nM) was -1%, the inhibition at 0.1 µM ([1]; 100 nM) was 2% and the inhibition at 1 µM ([1]; 1000 nM) was 1%. It also gave an inhibition at 0.01 µM ([2]; 10 nM) of -4%, an inhibition at 0.1 µM ([2]; 100 nM) of -10% and an inhibition at 1 µM ([2]; 1000 nM) of -27%. For the same compound, the inhibition at 0.01 µM ([3]; 10 nM) was -3%, the inhibition at 0.1 µM ([3]; 100 nM) was 4% and the inhibition at 1 µM ([3]; 1000 nM) was 7%. For the same compound, the inhibition at 0.01 µM ([4]; 10 nM) was 0%, the inhibition at 0.1 µM ([4]; 100 nM) was -16% and the inhibition at 1 µM ([4]; 1000 nM) was -11%. For the same compound, the inhibition at 0.01 µM ([5]; 10 nM) was 3%, the inhibition at 0.1 µM ([5]; 100 nM) was 26% and the inhibition at 1 µM ([5]; 1000 nM) was 74%. For the same compound, the inhibition at 0.01 µM ([6]; 10 nM) was -2%, the inhibition at 0.1 µM ([6]; 100 nM) was 7% and the inhibition at 1 µM ([6]; 1000 nM) was 4%. It also gave an inhibition at 0.01 µM ([7]; 10 nM) of 1%, an inhibition at 0.1 µM ([7]; 100 nM) of 14% and an inhibition at 1 µM ([7]; 1000 nM) of 9%. For the same compound, the inhibition at 0.01 µM ([8]; 10 nM) was -3%, the inhibition at 0.1 µM ([8]; 100 nM) was -8% and the inhibition at 1 µM ([8]; 1000 nM) was -2%.
